Test results published in ChEMBL document CHEMBL5352419, “Design, synthesis, and biological evaluation of tetrahydroquinoline amphiphiles as membrane-targeting antimicrobials against pathogenic bacteria and fungi” (Eur J Med Chem, 2022).
In brackets after ≈: the same amount, converted by molar mass. Activity calls are given as the source filed them. No cut-off for these calls is given here.

Legend:
Candida albicans [1] = assay: Antimicrobial activity against Candida albicans ATCC10231 assessed as fungal killing at 8 times of MIC measured at 0.5 hr by time-kill kinetics assay; assay type: functional, organism-based
Candida albicans [2] = assay: Antimicrobial activity against Candida albicans ATCC10231 assessed as fungal killing at 4 times of MIC measured at 0.5 hr by time-kill kinetics assay; assay type: functional, organism-based
[3] = Cytotoxicity against mouse J774.A1 cells assessed as viable cells at 12.5 ug/mL incubated for 24 hrs by CCK-8 assay relative to control; assay type: toxicity, cell-based; details: at 12.5 µg/mL, read-out: Activity
Klebsiella pneumoniae [4] = assay: Antimicrobial activity against Klebsiella pneumoniae ATCC14581 assessed as bacterial growth inhibition incubated for 24 hrs by Muller Hinton broth based dilution assay; assay type: functional
Candida albicans [5] = assay: Antimicrobial activity against Candida albicans ATCC10231 assessed as fungal growth inhibition incubated for 48 hrs by Sabouraud Dextrose broth based dilution assay; assay type: functional
[6] = Cytotoxicity against mouse corneal epithelial cells assessed as viable cells at 6.25 ug/mL incubated for 24 hrs by CCK-8 assay relative to control; assay type: toxicity, cell-based, Corneal epithelial cell; details: at 6.25 µg/mL, read-out: Activity
Candida albicans [7] = assay: Antimicrobial activity against Candida albicans CMCC98001 assessed as fungal growth inhibition incubated for 48 hrs by Sabouraud Dextrose broth based dilution assay; assay type: functional
Escherichia coli [8] = assay: Antimicrobial activity against Escherichia coli ATCC25922 assessed as bacterial growth inhibition incubated for 24 hrs in presence of 24.3 ug/mL Mg2+ by Muller Hinton broth based dilution assay; assay type: functional
Cell membrane [9] = assay: Disruption of membrane integrity in Escherichia coli ATCC25922 assessed as increase in fluorescence intensity at 1 to 8 times of MIC measured for 1 hr by SYTOX green dye based fluorescence analysis
[10] = Hemolytic activity in rabbit RBC incubated for 1 hr by absorbance based microplate reader assay; assay type: toxicity, cell-based, Oryctolagus cuniculus, Erythrocyte; details: rabbit red blood cells (erythrocytes)
Cell membrane [11] = assay: Disruption of outer membrane integrity in Acinetobacter baumannii ATCC17978
Escherichia coli [12] = assay: Disruption of preformed biofilm in Escherichia coli ATCC25922 assessed as residual preformed biofilm at 12.5 ug/mL incubated for 24 hrs by crystal violet staining based analysis relative to control; assay type: functional; details: dose 12.5 µg/ml
Cell membrane [13] = assay: Disruption of membrane integrity in Staphylococcus aureus ATCC29213 assessed as red fluorescence at 8 times of MIC incubated for 2 hrs under dark condition by SYTO 9 and PI staining based laser confocal microscopy analysis
Candida albicans [14] = assay: Antimicrobial activity against Candida albicans ATCC10231 assessed as fungal killing at 1 to 8 times of MIC measured upto 24 hrs by time-kill kinetics assay; assay type: functional, organism-based
Staphylococcus aureus [15] = assay: Antimicrobial activity against Staphylococcus aureus ATCC29213 assessed as log reduction in microbial load at 8 times of MIC measured at 0.5 hr by time-kill kinetics assay; assay type: functional
Escherichia coli [16] = assay: Antimicrobial activity against Escherichia coli ATCC25922 assessed as log reduction in microbial load at 8 times of MIC measured at 0.5 hr by time-kill kinetics assay; assay type: functional
Staphylococcus aureus [17] = assay: Antimicrobial activity against methicillin-resistant Staphylococcus aureus NCTC10442 assessed as bacterial growth inhibition incubated for 24 hrs by Muller Hinton broth based dilution assay; assay type: functional
[18] = Cytotoxicity against mouse corneal epithelial cells assessed as viable cells at 50 ug/mL incubated for 24 hrs by CCK-8 assay relative to control; assay type: toxicity, cell-based, Corneal epithelial cell; details: at 50 µg/mL, read-out: Activity
Escherichia coli [19] = assay: Disruption of preformed biofilm in Escherichia coli ATCC25922 assessed as residual preformed biofilm at 25 ug/mL incubated for 24 hrs by crystal violet staining based analysis relative to control; assay type: functional; details: dose 25 µg/ml
Staphylococcus aureus [20] = assay: Antibiofilm activity against Staphylococcus aureus ATCC29213 assessed as inhibition of biofilm formation at 0.78 ug/mL incubated for 24 hrs by crystal violet staining based analysis relative to control; assay type: functional
Escherichia coli [21] = assay: Antimicrobial activity against Escherichia coli ATCC25922 assessed as log reduction in microbial load at 4 times of MIC measured at 1 hr by time-kill kinetics assay; assay type: functional
Escherichia coli [22] = assay: Disruption of preformed biofilm in Escherichia coli ATCC25922 assessed as residual preformed biofilm at […] ug/mL incubated for 24 hrs by crystal violet staining based analysis relative to control; assay type: functional; details: dose […] microg/ml, 1.56 ug/mL
Escherichia coli [23] = assay: Antimicrobial activity against Escherichia coli ATCC25922 assessed as bacterial killing at 1 to 8 times of MIC measured upto 24 hrs by time-kill kinetics assay; assay type: functional, organism-based
[24] = Cytotoxicity against mouse corneal epithelial cells assessed as viable cells at 12.5 ug/mL incubated for 24 hrs by CCK-8 assay relative to control; assay type: toxicity, cell-based, Corneal epithelial cell; details: at 12.5 µg/mL, read-out: Activity
Klebsiella pneumoniae [25] = assay: Antimicrobial activity against Klebsiella pneumoniae ATCC10031 assessed as bacterial growth inhibition incubated for 24 hrs by Muller Hinton broth based dilution assay; assay type: functional
Candida albicans [26] = assay: Antimicrobial activity against Candida albicans ATCC10231 assessed as fungal killing at 8 times of MIC measured at 1 hr by time-kill kinetics assay; assay type: functional, organism-based

Structure (SMILES) | viability at 24 h, 12.5 ug/mL [3] | MIC (Klebsiella pneumoniae [4]) | MIC (Candida albicans [5]) | viability at 24 h, 6.25 ug/mL [6] | MIC (Candida albicans [7]) | MIC (Escherichia coli [8]) | Activity (Cell membrane [9]) | HC50 at 1 h [10] | Activity (Cell membrane [11]) | Activity (Escherichia coli [12]) | Activity (Cell membrane [13]) | Activity (Candida albicans [14]) | log(activity) (Staphylococcus aureus [15]) | log(activity) (Escherichia coli [16]) | MIC (Staphylococcus aureus [17]) | viability at 24 h, 50 ug/mL [18] | Activity (Escherichia coli [19]) | inhibition at 0.78 µg/mL (Staphylococcus aureus [20]) | log(activity) (Escherichia coli [21]) | Activity (Escherichia coli [22]) | also measured
CCCCCCCCCN1CCCc2cc(OCCCCNC(=N)N)ccc21 | 91.9% | 1.56 µg/mL (≈ 4.01 µM) | 1.56 µg/mL (≈ 4.01 µM) | 88.9% | 0.78 µg/mL (≈ 2.01 µM) | 1.56 µg/mL | Dose-Dependent Effect | > 200 µg/mL | Active | 8.81% | Active | Dose-Dependent Effect | >3 | >3 | 1.56 µg/mL (≈ 4.01 µM) | 8.36% | 1.67% | 91% | >3 | 72.32% | Activity (Candida albicans [1]): Active; Activity (Candida albicans [2]): Active; Activity (Escherichia coli [23]): Dose-Dependent Effect; viability at 24 h, 12.5 ug/mL [24]: 78%; MIC (Klebsiella pneumoniae [25]): 1.56 µg/mL (≈ 4.01 µM)
CC(C)=CCN1CCCc2cc(OCCCCCCCCNC(=N)N)ccc21 | 90% | 3.12 µg/mL (≈ 8.08 µM) | 0.78 µg/mL (≈ 2.02 µM) | 93.6% | 0.78 µg/mL (≈ 2.02 µM) | 3.12 µg/mL | Dose-Dependent Effect | > 200 µg/mL | Active | 6.85% | Active | Dose-Dependent Effect | >3 | >3 | 0.78 µg/mL (≈ 2.02 µM) | 36.3% | 4.34% | 93.6% | >3 | 85.82% | Activity (Candida albicans [26]): Active; Activity (Escherichia coli [23]): Dose-Dependent Effect; viability at 24 h, 12.5 ug/mL [24]: 87.6%; MIC (Klebsiella pneumoniae [25]): 3.12 µg/mL (≈ 8.08 µM)
